Experimental data as given in ChEMBL document CHEMBL1138401, “Novel nucleotide triphosphates as potent P2Y2 agonists with enhanced stability over UTP” (Bioorg Med Chem Lett, 2007).

What was measured:
[1] = target: P2Y purinoceptor 2 (Homo sapiens, UniProt P41231); assay: Agonist activity at human P2Y2 receptor expressed in human 1321N1 by FLIPR assay; assay type: functional
[2] = Metabolic stability in human bronchial epithelial cells after 120 mins; assay type: ADME, cell-based, Epithelial cell; settings: read-out: Stability
[3] = target: P2Y purinoceptor 4 (Homo sapiens, UniProt P51582); assay: Agonist activity at human cloned P2Y4 receptor expressed in human 1321N1 by FLIPR assay; assay type: functional
[4] = Metabolic stability in human bronchial epithelial cells after 180 mins; assay type: ADME, cell-based, Epithelial cell; settings: read-out: Stability
[5] = Agonist activity at human cloned P2Y6 receptor expressed in human 1321N1 by FLIPR assay; assay type: functional
[6] = target: P2Y purinoceptor 1 (Homo sapiens, UniProt P47900); assay: Agonist activity at human cloned P2Y1 receptor expressed in human 1321N1 by FLIPR assay; assay type: functional
P2Y purinoceptor 1, sequence (P47900 whole entry): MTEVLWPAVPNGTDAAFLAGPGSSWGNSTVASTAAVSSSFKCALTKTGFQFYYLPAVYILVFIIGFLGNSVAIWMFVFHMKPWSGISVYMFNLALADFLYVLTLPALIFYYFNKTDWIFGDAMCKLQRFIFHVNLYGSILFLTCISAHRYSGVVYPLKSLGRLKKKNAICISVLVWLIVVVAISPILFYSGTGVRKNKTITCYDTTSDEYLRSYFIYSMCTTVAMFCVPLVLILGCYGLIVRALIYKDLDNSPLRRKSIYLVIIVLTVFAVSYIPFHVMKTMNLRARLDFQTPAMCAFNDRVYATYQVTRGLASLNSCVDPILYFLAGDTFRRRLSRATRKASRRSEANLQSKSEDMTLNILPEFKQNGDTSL

P2Y purinoceptor 2, sequence (P41231 whole entry): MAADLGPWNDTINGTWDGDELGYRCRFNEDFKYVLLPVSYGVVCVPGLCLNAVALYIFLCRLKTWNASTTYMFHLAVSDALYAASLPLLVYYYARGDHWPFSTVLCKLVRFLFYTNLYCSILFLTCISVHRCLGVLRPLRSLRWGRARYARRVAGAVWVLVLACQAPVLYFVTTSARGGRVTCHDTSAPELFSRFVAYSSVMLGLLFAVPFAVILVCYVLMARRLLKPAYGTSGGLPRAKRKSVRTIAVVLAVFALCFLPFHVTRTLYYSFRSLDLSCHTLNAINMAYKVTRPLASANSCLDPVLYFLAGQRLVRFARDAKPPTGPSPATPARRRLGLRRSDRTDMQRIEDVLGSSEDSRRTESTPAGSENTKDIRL
P2Y purinoceptor 4, sequence (P51582 whole entry): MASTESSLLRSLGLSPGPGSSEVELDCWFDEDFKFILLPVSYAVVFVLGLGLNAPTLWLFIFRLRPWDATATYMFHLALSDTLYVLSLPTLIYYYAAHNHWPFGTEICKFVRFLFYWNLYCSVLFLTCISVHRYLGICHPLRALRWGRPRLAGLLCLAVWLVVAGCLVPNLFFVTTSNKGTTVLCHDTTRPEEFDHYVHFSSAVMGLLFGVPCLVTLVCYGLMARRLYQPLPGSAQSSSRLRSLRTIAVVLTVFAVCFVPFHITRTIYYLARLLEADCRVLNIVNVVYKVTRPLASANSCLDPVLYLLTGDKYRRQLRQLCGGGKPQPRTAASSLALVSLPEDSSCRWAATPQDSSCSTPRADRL

SMILES | EC50 [1] | remaining at 2 h [2] | EC50 [3] | remaining at 3 h [4] | EC50 [5] | EC50 [6]
COc1ccc2nc([C@@H]3O[C@H](COP(=O)(O)OP(=O)(O)OP(=O)(O)O)[C@@H](O)[C@H]3O)sc2c1 | 42 nM | – | – | – | – | –
COc1cccc2sc([C@@H]3O[C@H](COP(=O)(O)OP(=O)(O)OP(=O)(O)O)[C@@H](O)[C@H]3O)nc12 | 700 nM | – | – | – | – | –
Cc1ccc2oc([C@@H]3O[C@H](COP(=O)(O)OP(=O)(O)OP(=O)(O)O)[C@@H](O)[C@H]3O)nc2c1 | 390 nM | – | – | – | – | –
O=P(O)(O)OP(=O)(O)OP(=O)(O)OC[C@H]1O[C@@H](c2nc3ccccc3s2)[C@H](O)[C@@H]1O | 22 nM | 50% | 4120 nM | 20% | > 20000 nM | > 20000 nM
O=P(O)(O)OP(=O)(O)OP(=O)(O)OC[C@H]1O[C@@H](c2nc3ccc(Cl)cc3s2)[C@H](O)[C@@H]1O | 8 nM | – | – | – | – | –
O=P(O)(O)OP(=O)(O)OP(=O)(O)OC[C@H]1O[C@@H](c2nc3cc(F)ccc3s2)[C@H](O)[C@@H]1O | 3 nM | – | – | – | – | –
O=P(O)(O)OP(=O)(O)OP(=O)(O)OC[C@H]1O[C@@H](c2nc3cc(C(F)(F)F)ccc3s2)[C@H](O)[C@@H]1O | 10 nM | – | > 20000 nM | – | > 20000 nM | > 20000 nM
Cn1c([C@@H]2O[C@H](COP(=O)(O)OP(=O)(O)OP(=O)(O)O)[C@@H](O)[C@H]2O)nc2ccccc21 | 200 nM | – | – | – | – | –
O=P(O)(O)OP(=O)(O)OP(=O)(O)OC[C@H]1O[C@@H](c2nc3c(F)cc(Cl)cc3s2)[C@H](O)[C@@H]1O | 7 nM | – | 4230 nM | – | > 20000 nM | > 20000 nM
O=c1c2cc(F)ccc2ccn1[C@@H]1O[C@H](COP(=O)(O)OP(=O)(O)OP(=O)(O)O)[C@@H](O)[C@H]1O | – | 70% | – | 50% | – | –
O=c1ccn([C@@H]2O[C@H](COP(=O)(O)OP(=O)(O)OP(=O)(O)O)[C@@H](O)[C@H]2O)c(=O)[nH]1 [URIDINE TRIPHOSPHATE] | – | – | – | – | 424 nM | > 2000 nM
